According to the supplement of paper PMC10307832:

Columns and labels:
Assay in all cases: relative viability (nuclei count vs DMSO), 5 days (fraction); higher = more cells survive
[1] = compound: CCN(CCO)CCCC(C)Nc1ccnc2cc(Cl)ccc12 [Hydroxychloroquine] + CCNC(=O)c1noc(-c2cc(C(C)C)c(O)cc2O)c1-c1ccc(CN2CCOCC2)cc1 [Luminespib] (partner 0.01 µM)
Summary of the method: (§1)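 Relative viability was taken as the ratio of nuclei in treated wells to nuclei in vehicle wells. Lung cancer cell lines in 1536-well plates received compounds by pin tool one day after seeding, either one drug alone or a fixed anchor-drug dose plus five library-drug doses (not always all listed) in √10 steps. Nuclei were counted on 4× images after 5 days of treatment, and values are medians of duplicate plates.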

[2] = compound: CCN(CCO)CCCC(C)Nc1ccnc2cc(Cl)ccc12 [Hydroxychloroquine] + CC(C)C[C@H](NC(=O)[C@H](Cc1ccccc1)NC(=O)c1cnccn1)B(O)O [Bortezomib] (partner 0.002 µM)
Summary of the method: as §1

[3] = compound: CCN(CCO)CCCC(C)Nc1ccnc2cc(Cl)ccc12 [Hydroxychloroquine] + Cc1nc(Nc2ncc(C(=O)Nc3c(C)cccc3Cl)s2)cc(N2CCN(CCO)CC2)n1 [Dasatinib] (partner 0.075 µM)
Summary of the method: as §1

[4] = compound: CCN(CCO)CCCC(C)Nc1ccnc2cc(Cl)ccc12 [Hydroxychloroquine] + CC(=O)c1c(C)c2cnc(Nc3ccc(N4CCNCC4)cn3)nc2n(C2CCCC2)c1=O [Palbociclib] (partner 0.5 µM)
Summary of the method: as §1

| Cell Line | relative viability ([1]; first compound 0.5 µM) | relative viability ([1]; first compound 1.581 µM) | relative viability ([1]; first compound 5 µM) | relative viability ([1]; first compound 15.81 µM) | relative viability ([1]; first compound 50 µM) | relative viability ([2]; first compound 0.5 µM) | relative viability ([2]; first compound 1.581 µM) | relative viability ([2]; first compound 5 µM) | relative viability ([2]; first compound 15.81 µM) | relative viability ([2]; first compound 50 µM) | relative viability ([3]; first compound 0.5 µM) | relative viability ([3]; first compound 1.581 µM) | relative viability ([3]; first compound 5 µM) | relative viability ([3]; first compound 15.81 µM) | relative viability ([3]; first compound 50 µM) | relative viability ([4]; first compound 0.5 µM) | relative viability ([4]; first compound 1.581 µM) | relative viability ([4]; first compound 5 µM) | relative viability ([4]; first compound 15.81 µM) | relative viability ([4]; first compound 50 µM) |
| --- | --- | --- | --- | --- | --- | --- | --- | --- | --- | --- | --- | --- | --- | --- | --- | --- | --- | --- | --- | --- |
| NCI-H661 | 1.02 | 0.926 | 0.85 | 0.915 | 0.922 | 0.795 | 0.719 | 0.652 | 0.761 | 0.825 | 0.841 | 0.872 | 0.764 | 0.722 | 0.894 | 0.404 | 0.364 | 0.413 | 0.377 | 0.403 |
| NCI-H1792 | 0.434 | 0.503 | 0.472 | 0.698 | 0.442 | 0.979 | 0.955 | 1.02 | 1.05 | 1.17 | 0.922 | 0.936 | 0.759 | 0.825 | 0.711 | 0.696 | 0.683 | 0.584 | 0.657 | 0.68 |
| NCI-H1355 | 0.877 | 0.754 | 0.712 | 0.632 | 0.729 | 1.24 | 1.19 | 1.09 | 1.12 | 1.25 | 0.74 | 0.59 | 0.693 | 0.705 | 0.875 | 0.41 | 0.365 | 0.392 | 0.387 | 0.379 |
| UMC-11 | – | 1.01 | 1.05 | 1.1 | 1.04 | 0.626 | 0.822 | 0.863 | 0.657 | 1.15 | – | 0.504 | 0.473 | 0.628 | 0.6 | 0.285 | 0.304 | 0.413 | 0.311 | 0.305 |
| NCI-H2347 | 0.308 | 0.342 | 0.531 | 0.729 | 0.361 | 0.979 | 0.911 | 0.931 | – | 0.878 | 0.281 | 0.149 | 0.325 | 0.281 | 0.274 | 0.457 | 0.418 | 0.414 | 0.515 | 0.383 |
| LCLC-97TM1 | 0.876 | 0.833 | 0.787 | 0.768 | 0.867 | 0.453 | 0.764 | 0.483 | 0.523 | 0.529 | 0.866 | 0.896 | 0.903 | 0.841 | 0.808 | 0.223 | 0.227 | 0.313 | 0.275 | 0.21 |
| EMC-BAC-2 | 1.2 | 1.03 | 1.14 | 1.18 | 1.19 | 0.981 | 1.03 | 1.06 | 1.12 | 1.17 | 0.309 | 0.381 | 0.347 | 0.329 | 0.345 | 0.52 | 0.45 | 0.519 | 0.514 | 0.523 |
| NCI-H1975 | 0.296 | 0.142 | 0.257 | 0.281 | 0.234 | 0.343 | 0.333 | 0.342 | 0.379 | 0.354 | 0.404 | 0.376 | 0.322 | 0.502 | 0.412 | 0.47 | 0.53 | 0.603 | 0.615 | 0.789 |
| BEN | 0.382 | 0.331 | 0.309 | 0.311 | 0.33 | 0.693 | 0.802 | 0.977 | 0.824 | 0.949 | 0.273 | 0.332 | 0.316 | 0.267 | 0.331 | 0.482 | 0.434 | 0.439 | 0.473 | 0.469 |
| NCI-H23 | 0.23 | 0.218 | 0.22 | 0.215 | 0.216 | 1.15 | 1.14 | 0.884 | 1.02 | 0.881 | 0.87 | 0.683 | 0.879 | 0.807 | 0.795 | 0.499 | 0.487 | 0.548 | 0.464 | 0.477 |
| CAL-12T | 0.286 | 0.319 | 0.363 | 0.511 | 0.373 | 1.11 | – | 0.922 | 0.795 | 0.926 | 0.573 | 0.399 | 0.352 | 0.351 | 0.404 | 0.56 | 0.383 | 0.462 | 0.478 | 0.595 |
| EPLC-272H | 0.188 | 0.388 | 0.264 | 0.289 | 0.33 | 0.762 | 0.579 | 0.736 | 0.861 | 1.08 | 0.342 | 0.441 | 0.333 | 0.335 | 0.347 | 0.281 | 0.34 | 0.309 | 0.285 | 0.295 |
| LCLC-103H | 0.983 | 0.921 | 1.05 | 1.11 | 1.1 | 1.13 | 0.837 | 1.04 | 1.15 | 1.06 | 0.367 | 0.405 | 0.523 | 0.547 | 0.543 | 0.498 | 0.496 | 0.524 | 0.461 | 0.469 |
| NCI-H2405 | 0.763 | 0.613 | 0.671 | 0.663 | 0.579 | 1.03 | 0.918 | 1.02 | 0.989 | 1.04 | 0.225 | 0.164 | 0.225 | 0.203 | 0.204 | 0.557 | 0.471 | 0.576 | 0.516 | 0.516 |
| HCC-15 | 0.433 | 0.39 | 0.25 | 0.252 | 0.503 | 0.951 | 0.918 | 1.08 | 1.09 | 1.2 | 0.621 | 0.578 | 0.581 | 0.609 | 0.627 | 0.754 | 0.762 | 0.745 | 0.731 | 0.574 |
| RERF-LC-KJ | 1.08 | 1.22 | 1.31 | 1.14 | 1.1 | 1.15 | 1.1 | 0.984 | 1.15 | 1.08 | 0.71 | 0.731 | 0.793 | 0.734 | 1.02 | 0.838 | 1.16 | 1.03 | 1.12 | 1.06 |
| HARA | 1.15 | 1.09 | 0.789 | 0.542 | 1.01 | 1.1 | 1.19 | 1.02 | 1.13 | 1.06 | 0.287 | 0.262 | 0.253 | 0.29 | 0.299 | 0.239 | 0.292 | 0.26 | 0.302 | 0.23 |
